Experimental data as given in a melting point compilation (Tetko et al.; mined from patent text by program, amines drawn as free bases though some values may be those of a salt).

melting point [°C] | SMILES
88 to 98 | Fc1cccc(-c2nc(-c3ccccn3)no2)c1
96 to 96.2 | CCCCCc1ccc(-c2ncc(C#N)cn2)cc1
141 to 143 | C=Cc1ccc(CN2C(=O)c3ccccc3C2=O)c(Cl)c1
59 to 61 | CCCCc1ccc(/C(Cl)=C/c2ccc(Br)cc2)cc1
57 to 61 | CCCCCCCCN=C1SC(=CC(=O)O)C(=O)N1CCCCCCCC
125 to 127 | CCCN(c1ccncc1)N1C(=O)C(C)(C)c2ccccc21
240 to 245 | Cc1c(C)c(N2CCN(c3ccc(C(N)=O)cc3)CC2)c(C)c2c1OC(C)C2 (centres undefined)
> 310 | Cc1c2[nH]c(C(=O)O)cc(=O)c2cc2c(=O)cc(C(=O)O)[nH]c12
74 to 76 | CCNC(=O)n1nc(Oc2c(Cl)cc(C(F)(F)F)cc2Cl)cc1C(C)C
179 to 180 | O=C1OCCC1n1nc(-c2c(-c3ccccc3)nn3ccccc23)ccc1=O (centres undefined)
94.3 | COC(=O)/C=C/c1ccc(N(C)C(C)=O)nc1
164 to 166 | Cc1ccc([N+](=O)[O-])cc1NC(N)=S
59 to 61 | Cc1cc(C)cc(Cc2c(C(C)C)c(=O)[nH]c(=O)n2COCCCN(OC(=O)Oc2ccccc2)C(=O)Oc2ccccc2)c1
160 to 161 | CC(=O)SCCCC1(C)C(=O)N2CCCC(C(=O)O)N2C1=O (centres undefined)
182 | NC(CCCCCCCCC(N)=NO)=NO
58 to 59 | O=C(O)CCCCCCCCCSc1ccccc1O
157 to 159 | Cc1cccnc1NC(=O)CN1C[C@@H](C)N(c2ncnc3sccc23)[C@@H](C)C1
107 to 109 | COc1ccc(-n2nc(CCC#N)cc2-c2ccc(Cl)cc2)cc1
189 | Cc1c(Cl)cccc1S(=O)(=O)Nc1nc(CC(=O)Oc2ccccc2)cs1
93 to 95 | O=C(COC1CCCCCCCCCCC1)C1=C(O)CSC1=O
300 to 302 | Cc1ccccc1C=C1CCc2c1nc1ccc(C(=O)O)cn1c2=O
230 to 231 | Cn1cc(S(N)(=O)=O)c(=O)c2ccccc21
216 to 219 | COc1nc2cc(Cl)c(Cl)cc2nc1S(C)(=O)=O
138 to 140 | c1ccc(Cc2c[nH]c(-c3ncc[nH]3)n2)cc1

melting point [°C] | SMILES
120 to 122 | C=CCc1c(O)cc(OC)cc1C(=O)O
158 | COc1ccc(-n2nc(-c3c(-c4ccccc4)nn4ccccc34)ccc2=O)cc1
38 to 39 | CCC(O)(c1ccccc1)c1cc(C)ccc1C (centres undefined)
122 to 123 | CCC(CC)(C(=O)OC1CC(C)(C)N(OCc2ccccc2)C(C)(C)C1)C(=O)OC1CC(C)(C)N(OCc2ccccc2)C(C)(C)C1
93 to 96 | COC1=C(OC)C(=O)C2=C(CC(CCCCCCCCNC(C)=O)C2)C1=O
167 to 170 | Oc1noc2ccc(Oc3ccc(C(F)(F)F)cc3Cl)cc12
83 to 85 | CC(C)(C)OC(=O)NC(O)CCO (centres undefined)
120 to 121 | CCCc1cc2c(cc1C=Cc1ccc(C(=O)OC)cc1)C(C)(C)CCC2(C)C
189 | CC(=O)OCCn1c(=O)c(C#N)c(N2CCN(C(=O)c3cccs3)CC2)c2cccnc21
130 to 131 | CC(C)(C)c1cc(-c2nn(CCCBr)c(=O)o2)cc(C(C)(C)C)c1O
237 to 238 | O=C(O)C1NCCc2c1[nH]c1ccc(F)cc21 (centres undefined)
113 to 114 | Cc1ccc(S(=O)(=O)N(C)c2ccc(Cl)cc2N=O)cc1
219 to 220 | COc1ccc(Nc2nc(NC(=O)C(C)(C)C)nc3[nH]c4ccccc4c23)cc1
295 to 300 | CCCN1NCc2c(C3C(=O)Nc4ccc(Br)cc43)ncnc21 (centres undefined)
134 to 135 | CCN1CCC(n2nc(-c3c(-c4ccccc4)nn4ccccc34)ccc2=O)CC1
109 to 112 | COc1cc(C)c(C(=O)c2c(Cl)nc(Cl)c(C(C)=O)c2C(F)(F)F)c(OC)c1OC
97 to 99.5 | O=COC1(N=NC2(OC=O)CCCCC2)CCCCC1
83 | CS(=O)(=O)c1ccc(-c2ccccc2C=C2CCCCC2)cc1
260 | CCCOc1ccccc1NC=C1C(=O)N(c2ccc(C(=O)O)cc2)N=C1C
128 to 130 | CCOC(=O)c1ccc2cc(OC(=S)N(C)C)ccc2c1
238 to 240 | N#Cc1ccsc1C1=CC(=O)Nc2cc(-c3ccccc3F)ccc2N1
146 to 148 | CC(=O)COc1ccc2c(C)cc(=O)oc2c1
199 to 203 | CCOCc1nc2c(N)nc3cc(-c4ccccc4)ccc3c2n1CCCN1CCCC1=O
158 to 162 | CC1(C)Cc2cc(N)c3c(c2C(c2ccccc2)=N1)CC(C)(C)O3

melting point [°C] | SMILES
174 to 176 | Cc1ccc2c(c1)cc(C(=O)O)n2CC(=O)OC(C)(C)C
245 to 248 | O=C(O)c1ccc(-c2csc(-c3ccccc3)n2)cc1
94 to 97 | Cc1cc(-c2ccc(C(F)(F)F)cc2)nc(S(C)(=O)=O)n1
111 to 112 | COc1ccc(-c2ccc(Cl)nn2)c(OCC2CO2)c1 (centres undefined)
107 to 111 | CCCCCCCCCCCCCCCCCC(=O)N1C(CCCCCCCCCCCCCCCCC)NC(=O)CC1C(=O)O (centres undefined)
> 250 | COc1cc2cc(C(=O)O)cc(-c3ccnc(Cl)c3)c2cc1OC
118 to 125 | N#Cc1cnc2cc(-c3cc(CN4CCOCC4)c(CN4CCOCC4)s3)ccc2c1Nc1ccc(Cl)cc1Cl
152 to 154 | O=C(Nc1ccc(CCN2C(=O)[C@H]3CCC[C@H]3N(C(=O)CN3C(=O)c4ccccc4C3=O)c3ccccc32)cc1)OCc1ccccc1 (relative stereo)
201 to 204 | CN(C)c1nc(-c2ccccc2O)cs1
145 to 147 | COc1ccc(S(=O)(=O)C(Cl)(Cl)S(=O)(=O)N(C)C)cc1
163 to 165 | COc1cccc(S(=O)(=O)N2C3CCC2CN(CC(=O)Nc2ccccc2C)C3)c1
165 to 167 | CCOC(=O)C1=C(C)NC(C)=C(C(=O)OC)C1c1ccccc1/C=C/C(=O)OC(C)(C)C (centres undefined)
104 to 106 | CCNC(=O)ON(C(=O)CC)C(=O)NCC
134 | Cn1c(=NN)sc2ccccc21
115 to 119 | Oc1ccc(C2=CCCCC2)cc1
118 | O=C(c1ccc(S(=O)(=O)Cl)cc1)c1cccs1
144 | N#CCc1ccc2nc(-c3ccccc3)oc2c1
128 to 130 | Cc1ccc(N)c(C(=O)NCCC(C)n2ccnc2)c1 (centres undefined)
180 to 181 | N#CC(C(=O)O)=C(c1ccc(F)cc1)c1ccc(F)cc1
185 to 187 | CC(=O)OC(C)c1nccc2[nH]c(=O)ccc12 (centres undefined)
140 | O=c1[nH]c2ccccc2c(=O)n1CCCCNCCCn1c(=O)[nH]c2ccccc2c1=O
290 to 293 | CC(=O)NS(=O)(=O)c1cc(C(=O)O)cc(N)c1Oc1ccccc1
167 to 170 | CNc1c([N+](=O)[O-])ccc(Cl)c1C#N
105 to 106 | CC(C)Oc1cc(COc2cc(CCC(=O)O)n(C)n2)cc(COc2ccc(Cl)cc2Cl)c1

SMILES | melting point [°C]
O=C(NC1CN2CCC1CC2)C(O)(c1cccs1)c1cccs1 (centres undefined) | 169
N#Cc1ccc(N2C(=O)N(CCO)C3(CCOCC3)C2=O)cc1C(F)(F)F | 196 to 197
